The values that follow are results of earlier work, collected in US11925179B2, “Glyphosate formulations containing amidoalkylamine surfactants” (Monsanto Technology LLC, priority 2008, dated 2024).

For this data set the following is noted: glyphosate in its acid form, 25° C.

With `O=C(O)CNCP(=O)(O)O` [glyphosate, N-phosphonomethylglycine], the solubility in water is reported as 1.16 % by weight.
